Test results reported in ChEMBL document CHEMBL3792311, “In vitro and in vivo activity of ML302F: a thioenolate inhibitor of VIM-subfamily metallo -lactamases” (Medchemcomm, 2016).
The source made the active and inactive calls. The calls are words filed in the database; no cut-off is given here.

Experiments:
[1] = test system: Providencia stuartii; assay: Potentiation of meropenem-induced antibacterial activity against VIM1 carbapenemase producing multidrug-resistant Providencia stuartii 67 clinical isolate at 1:8 meropenem:compound ratio by checkerboard method; assay type: functional
[2] = test system: Pseudomonas aeruginosa; assay: Potentiation of meropenem-induced antibacterial activity against VIM2 carbapenemase producing multidrug-resistant Pseudomonas aeruginosa 6 clinical isolate assessed as MIC of meropenem at 1:8 meropenem:compound ratio by broth microtiter dilution method; assay type: functional
[3] = test system: Pseudomonas aeruginosa; assay: Potentiation of meropenem-induced antibacterial activity against VIM2 carbapenemase producing multidrug-resistant Pseudomonas aeruginosa 15 clinical isolate assessed as MIC of meropenem at 1:8 meropenem:compound ratio by broth microtiter dilution method; assay type: functional
[4] = test system: Pseudomonas aeruginosa; assay: Potentiation of meropenem-induced antibacterial activity against VIM2 carbapenemase producing multidrug-resistant Pseudomonas aeruginosa GR57 clinical isolate infected in Galleria mellonella larvae assessed as relative risk of survival at 4.8 mg/kg measured at 96 hrs relative to control; assay type: functional
[5] = test system: Pseudomonas aeruginosa; assay: Antibacterial activity against VIM2 carbapenemase producing multidrug-resistant Pseudomonas aeruginosa GR64 clinical isolate up to 512 mg/L by broth microtiter dilution method; assay type: functional, organism-based
[6] = test system: Klebsiella pneumoniae; assay: Potentiation of meropenem-induced antibacterial activity against VIM1 carbapenemase producing multidrug-resistant Klebsiella pneumoniae GR54 clinical isolate assessed as MIC of meropenem at 1:8 meropenem:compound ratio by broth microtiter dilution method; assay type: functional
[7] = test system: Pseudomonas aeruginosa; assay: Antibacterial activity against VIM2 carbapenemase producing multidrug-resistant Pseudomonas aeruginosa 50 clinical isolate up to 512 mg/L by broth microtiter dilution method; assay type: functional, organism-based
[8] = test system: Pseudomonas aeruginosa; assay: Potentiation of meropenem-induced antibacterial activity against VIM2 carbapenemase producing multidrug-resistant Pseudomonas aeruginosa 16 clinical isolate assessed as MIC of meropenem at 1:8 meropenem:compound ratio by broth microtiter dilution method; assay type: functional
[9] = test system: Escherichia coli; assay: Potentiation of meropenem-induced antibacterial activity against VIM4 carbapenemase producing multidrug-resistant Escherichia coli 98 clinical isolate at 1:8 meropenem:compound ratio by checkerboard method; assay type: functional
[10] = test system: Pseudomonas aeruginosa; assay: Potentiation of meropenem-induced antibacterial activity against VIM2 carbapenemase producing multidrug-resistant Pseudomonas aeruginosa 14 clinical isolate assessed as MIC of meropenem at 1:8 meropenem:compound ratio by broth microtiter dilution method; assay type: functional
[11] = test system: Providencia stuartii; assay: Antibacterial activity against VIM1 carbapenemase producing multidrug-resistant Providencia stuartii 70 clinical isolate up to 512 mg/L by broth microtiter dilution method; assay type: functional, organism-based
[12] = test system: Klebsiella pneumoniae; assay: Potentiation of meropenem-induced antibacterial activity against VIM4 carbapenemase producing multidrug-resistant Klebsiella pneumoniae 128 clinical isolate at 1:8 meropenem:compound ratio by checkerboard method; assay type: functional
[13] = test system: Klebsiella pneumoniae; assay: Potentiation of meropenem-induced antibacterial activity against VIM4 carbapenemase producing multidrug-resistant Klebsiella pneumoniae 101 clinical isolate at 1:8 meropenem:compound ratio by checkerboard method; assay type: functional
[14] = test system: Pseudomonas aeruginosa; assay: Antibacterial activity against VIM2 carbapenemase producing multidrug-resistant Pseudomonas aeruginosa 13 clinical isolate up to 512 mg/L by broth microtiter dilution method; assay type: functional, organism-based
[15] = test system: Klebsiella pneumoniae; assay: Potentiation of meropenem-induced antibacterial activity against VIM4 carbapenemase producing multidrug-resistant Klebsiella pneumoniae 196 clinical isolate at 1:8 meropenem:compound ratio by checkerboard method; assay type: functional
[16] = test system: Klebsiella pneumoniae; assay: Potentiation of meropenem-induced antibacterial activity against VIM1 carbapenemase producing multidrug-resistant Klebsiella pneumoniae GR54 clinical isolate at 1:8 meropenem:compound ratio by checkerboard method; assay type: functional
[17] = test system: Providencia stuartii; assay: Potentiation of meropenem-induced antibacterial activity against VIM1 carbapenemase producing multidrug-resistant Providencia stuartii 70 clinical isolate assessed as MIC of meropenem at 1:8 meropenem:compound ratio by broth microtiter dilution method; assay type: functional
[18] = test system: Pseudomonas aeruginosa; assay: Antibacterial activity against VIM2 carbapenemase producing multidrug-resistant Pseudomonas aeruginosa GR58 clinical isolate up to 512 mg/L by broth microtiter dilution method; assay type: functional, organism-based
[19] = test system: Klebsiella pneumoniae; assay: Potentiation of meropenem-induced antibacterial activity against VIM4 carbapenemase producing multidrug-resistant Klebsiella pneumoniae 120 clinical isolate at 1:8 meropenem:compound ratio by checkerboard method; assay type: functional
[20] = test system: Klebsiella oxytoca; assay: Potentiation of meropenem-induced antibacterial activity against VIM4 carbapenemase producing multidrug-resistant Klebsiella oxytoca 95 clinical isolate assessed as MIC of meropenem at 1:8 meropenem:compound ratio by broth microtiter dilution method; assay type: functional
[21] = test system: Klebsiella pneumoniae; assay: Potentiation of meropenem-induced antibacterial activity against VIM4 carbapenemase producing multidrug-resistant Klebsiella pneumoniae 101 clinical isolate assessed as MIC of meropenem at 1:8 meropenem:compound ratio by broth microtiter dilution method; assay type: functional
[22] = test system: Pseudomonas aeruginosa; assay: Potentiation of meropenem-induced antibacterial activity against VIM2 carbapenemase producing multidrug-resistant Pseudomonas aeruginosa 27 clinical isolate at 1:8 meropenem:compound ratio by checkerboard method; assay type: functional
[23] = test system: Pseudomonas aeruginosa; assay: Antibacterial activity against VIM2 carbapenemase producing multidrug-resistant Pseudomonas aeruginosa 15 clinical isolate up to 512 mg/L by broth microtiter dilution method; assay type: functional, organism-based
[24] = test system: Escherichia coli; assay: Potentiation of meropenem-induced antibacterial activity against VIM4 carbapenemase producing multidrug-resistant Escherichia coli 98 clinical isolate assessed as MIC of meropenem at 1:8 meropenem:compound ratio by broth microtiter dilution method; assay type: functional
[25] = test system: Pseudomonas aeruginosa; assay: Antibacterial activity against VIM2 carbapenemase producing multidrug-resistant Pseudomonas aeruginosa 27 clinical isolate up to 512 mg/L by broth microtiter dilution method; assay type: functional, organism-based
[26] = test system: Escherichia coli; assay: Potentiation of meropenem-induced antibacterial activity against VIM4 carbapenemase producing multidrug-resistant Escherichia coli 98 clinical isolate infected in Galleria mellonella larvae assessed as relative risk of survival at 4.8 mg/kg measured at 96 hrs relative to control; assay type: functional
[27] = test system: Pseudomonas aeruginosa; assay: Potentiation of meropenem-induced antibacterial activity against VIM2 carbapenemase producing multidrug-resistant Pseudomonas aeruginosa 47 clinical isolate at 1:8 meropenem:compound ratio by checkerboard method; assay type: functional
[28] = test system: Klebsiella pneumoniae; assay: Potentiation of meropenem-induced antibacterial activity against VIM4 carbapenemase producing multidrug-resistant Klebsiella pneumoniae 120 clinical isolate assessed as MIC of meropenem at 1:8 meropenem:compound ratio by broth microtiter dilution method; assay type: functional
[29] = test system: Pseudomonas aeruginosa; assay: Antibacterial activity against VIM2 carbapenemase producing multidrug-resistant Pseudomonas aeruginosa 9 clinical isolate up to 512 mg/L by broth microtiter dilution method; assay type: functional, organism-based

## O=C(O)/C(S)=C/c1c(Cl)ccc(Cl)c1Cl
[1]
  fractional inhibitory concentration index (FICI): 0.14
[2]
  MIC: 16 µg/mL
[3]
  MIC: 16 µg/mL
[4]
  fold change (FC): 0.28
[5]
  Activity: inactive
[6]
  MIC: 4 µg/mL
[7]
  Activity: inactive
[8]
  MIC: 16 µg/mL
[9]
  fractional inhibitory concentration index (FICI): 0.16
[10]
  MIC: 2 µg/mL
[11]
  Activity: inactive
[12]
  fractional inhibitory concentration index (FICI): 0.27
[13]
  fractional inhibitory concentration index (FICI): 0.09
[14]
  Activity: inactive
[15]
  fractional inhibitory concentration index (FICI): 0.08
[16]
  fractional inhibitory concentration index (FICI): 0.09
[17]
  MIC: 1 µg/mL
[18]
  Activity: inactive
[19]
  fractional inhibitory concentration index (FICI): 0.25
[20]
  MIC: 8 µg/mL
[21]
  MIC: 2 µg/mL
[22]
  fractional inhibitory concentration index (FICI): 0.5
[23]
  Activity: inactive
[24]
  MIC: 2 µg/mL
[25]
  Activity: inactive
[26]
  fold change (FC): 0.64
[27]
  fractional inhibitory concentration index (FICI): 0.05
[28]
  MIC: 2 µg/mL
[29]
  Activity: inactive
